Measured values from US5747482A, “Methods and compositions to inhibit keratinocyte proliferation” (priority 1996, dated 1998).

Experiments:
keratinocyte cells = assay type: cell-based, human; settings: keratinocytes, 48 h, 500 µM
Protocol: (§1) Adult human keratinocytes from pooled donor skin were obtained from commercial sources (Cascade Biologics, Portland, Oreg., U.S.A.) and placed in 150 cm^2 bottom area culture flasks using culture medium 154 supplemented with HKGS (about 1%). At 80% confluency, cells were harvested with trypsin and cryopreserved until required.
Culture was renewed for a further 24 hours. At this time, media were removed and discarded, and the cells lysed with 200 μL/well of the solution provided in the Cell Death Detection Kit ELISA Plus (Boehringer Mannheim Biochemicals, Indianapolis, Ind., U.S.A., catalogue number 1774425). Aliquots of the lysate (20 μL) from each of 2 or 3 wells were assayed for nucleosomal enrichment following the kit instructions.
The evaluation of apoptosis of keratinocytes was conducted to determine the relative affect on apoptosis achieved by gallium maltol, gallium nitrate and maltol. Specifically, keratinocyte cells were seeded in 12 well plates seed using culture medium 154. Cultures were continued for 4 days and the medium was changed to medium 154 with 1.2 mM Ca^+2 either without supplement or with one of the following supplements:
1. gallium maltol at a final concentration of 5×10^-4 M;
2. gallium nitrate at a final concentration of 5×10^-4 M;
3. maltol at a concentration of 15×10^-4 M; and
4. CAM at a concentration of 1×10^-5 M.
Three (3) wells were used in each group. The final amount of medium was 300 μL in each well. Culture was continued for 2 days. Bars represent absorbance at 405 nm minus the absorbance at 492 nm.

Keratinocytes = test: Effect on cell differentiation and cell number, gallium maltol added 24 hours after seeding, Example 4; assay type: cell-based, human; settings: 7 days, high calcium
Protocol: as §1
Culture flasks (75 cm^2 bottom area) were seeded with keratinocytes at about 2,500 cells per cm^2 as before. After 24 hours, the medium in three (3) flasks were changed to media (154) with the calcium content increased from the normal 0.2 mM to 1.0 mM ("high calcium") plus gallium maltol (GaM) at the following concentrations: 1×10^-5 M, 5×10^-5 M, and 1×10^-4 M. The culture was continued for 7 days when cells were about 75% confluent in the controls (no GaM). Media supplemented as above were changed every 2 days. Finally, media were aspirated and cells rinsed with PBS before exposure to trypsin (0.025%)/EDTA (0.01%). When dislodged, they were collected in centrifuge tubes and the flasks rinsed with PBS:trypsin neutralizing solution (Clonetics, San Diego, Calif., U.S.A.; 1:1 v/v) and added to the cell suspension. The total volume of suspensions was approximately 8 to 10 mL. Aliquots of these suspensions were counted on the hemocytometer in terms of:
(1) small, light or dark keratinocytes, referred to as "proliferating";
(2) larger, squamous keratinocytes, with intracellular structural elements; and
(3) clear squamous cells without structural elements.
After counting, each suspension was centrifuged, the supernatant discarded, and the cell pellet resuspended in 0.5 to 1.0 mL of 1% SDS:2.5 mM DTT. After 15 minutes at 37° C., aliquots of these suspensions were counted for insoluble cornified envelops. The volumes were noted.

[1] = test system: Adult human keratinocytes; test: Keratinocyte growth inhibition (crystal violet staining; confirmatory hexosaminidase activity), Example 2; assay type: cell-based
Description: Adult human keratinocytes from pooled donor skin were obtained from commercial sources (Cascade Biologics, Portland, Oreg., U.S.A.) and placed in 150 cm^2 bottom area culture flasks using culture medium 154 supplemented with HKGS (about 1%). At 80% confluency, cells were harvested with trypsin and cryopreserved until required. At the start of the experiments, the required number of vials of keratinocytes was thawed, and the keratinocytes were placed in culture in 24 well plates at about 2,500 cells/cm^2 using the same culture medium as described above. After 24 hours (to allow attachment), the medium was changed to fresh 154 supplemented with HKGS (about 1%) and gallium maltol. Specifically, the fresh medium was prepared by addition of a sufficient amount of a stock solution to provide for six different compositions having a final gallium concentration of 10^-4 M, 10^-5 M, 10^-6 M, 10^-8 M, 10^-10 M, and 10^-12 M. The stock solution was prepared by adding 22.25 mg of gallium maltol to 50 mL of 154 medium and then passing the solution through a 0.2 μm filter and storing at 4° C. Media were replaced every 2 or 3 days. […]

## Cc1occc(=O)c1[O-].Cc1occc(=O)c1[O-].Cc1occc(=O)c1[O-].[Ga+3] [gallium maltol, neutral 3:1 gallium complex of maltol]
Keratinocyte cells
  increase in apoptosis compared to control: ~19 fold
Keratinocytes; 1×10^-4 M
  anti-proliferative effect: so great that the number of cells was too small for accurate counting
Keratinocytes; 1×10^-5 M
  number of proliferative, squamous and cornified cells vs control: for all intents and purposes, unchanged compared to control
Keratinocytes; 5×10^-5 M
  increase in the number of cornified envelopes vs control: tenfold
Keratinocytes; 5×10^-5 M, vs control, 50 µM
  decrease in total number of cells: about 90%
Keratinocytes; 5×10^-5 M, FIG. 4
  number of squamous cells vs control: increase in the number of squamous cells
  proportion of proliferative cells vs control: moderate decrease in the proportion of proliferative cells
Keratinocytes; 10^-5 M, control 0.26 ± 0.01%
  CELL NUMBER, cornified: 0.39 ± 0.17%
Keratinocytes; 10^-5 M, control 1.8 ± 0.9%
  CELL NUMBER, clear squamous: 2.9 ± 0.15%
Keratinocytes; 10^-5 M, control 12.7 ± 2.7%
  CELL NUMBER, squamous: 13.5 ± 0.65%
Keratinocytes; 10^-5 M, control 85.3 ± 2.7%
  CELL NUMBER, proliferative: 83.6 ± 0.64%
Keratinocytes
  concentration at which inhibition of keratinocyte proliferation is achieved: greater than 1×10^-5 M
  concentration enhancing cell differentiation of keratinocytes: greater than 1×10^-5 M
[1]; 10^-4 M, FIG. 1 (crystal violet) and FIG. 2 (hexosaminidase), 100 µM
  keratinocyte growth reduced as compared to control: 60 to 90%
[1]; concentrations below 10^-4 M, FIG. 2 (hexosaminidase)
  effect on keratinocyte growth at lower concentrations: may, in fact, slightly promote keratinocyte growth
